Data from patent US10183918B2, “Oxa-azaspiro compounds having activity against pain” (LABORATORIOS DEL DR. ESTEVE S.A., priority 2015, dated 2019).

Biological target: T1, human σ1 receptor (Homo sapiens, UniProt Q99720)
T1 construct: expressed in transfected cells; host or cells: HEK-293 (membranes)
Test: Human σ1 receptor radioligand assay
Type: binding
Conditions: transfected HEK-293 membranes, 5 nM [3H](+)-pentazocine as radioligand
Description: Human σ1 Receptor Radioligand Assay
To investigate binding properties of test compounds to human σ1 receptor, transfected HEK-293 membranes and [^3H](+)-pentazocine (Perkin Elmer, NET-1056), as the radioligand, were used. The assay was carried out with 7 μg of membrane suspension, 5 nM of [^3H](+)-pentazocine in either absence or presence of either buffer or 10 μM Haloperidol for total and non-specific binding, respectively. Binding buffer contained Tris-HCl 50 mM at pH 8. Plates were incubated at 37° C. for 120 minutes. After the incubation period, the reaction mix was then transferred to Multiscreen HTS, FC plates (Millipore), filtered and plates were washed 3 times with ice-cold 10 mM Tris-HCL (pH7.4). Filters were dried and counted at approximately 40% efficiency in a MicroBeta scintillation counter (Perkin-Elmer) using EcoScint liquid scintillation cocktail

T1 sequence (Q99720 whole entry): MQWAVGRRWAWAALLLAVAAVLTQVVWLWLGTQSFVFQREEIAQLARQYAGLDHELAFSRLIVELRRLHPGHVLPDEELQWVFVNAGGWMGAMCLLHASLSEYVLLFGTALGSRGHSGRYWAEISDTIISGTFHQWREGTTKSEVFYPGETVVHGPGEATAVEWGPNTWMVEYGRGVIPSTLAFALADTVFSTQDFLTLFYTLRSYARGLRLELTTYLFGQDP

SMILES	Ki
CCN1C[C@]2(CC[C@H](NCc3ccccc3)CC2)OC2(CC2)C1=O [Example 1, (5s,8s)-8-(benzylamino)-12-ethyl-4-oxa-12-azadispiro[2.1.5.3]tridecan-13-one]	≥ 500 nM
CCN1C[C@]2(CC[C@@H](NCc3ccccc3)CC2)OC2(CC2)C1=O [Example 2, (5r,8r)-8-(benzylamino)-12-ethyl-4-oxa-12-azadispiro[2.1.5.3]tridecan-13-one]	< 500 nM
CCN1C[C@]2(CC[C@H](N(C)CCc3ccccc3)CC2)OC2(CC2)C1=O [Example 3, (5s,8s)-12-ethyl-8[methyl(2-phenylethyl)amino]-4-oxa-12-azadispiro[2.1.5.3]tridecan-13-one]	< 100 nM
CCN1C[C@]2(CC[C@@H](N(C)CCc3ccccc3)CC2)OC2(CC2)C1=O [Example 4, (5r,8r)-12-ethyl-8-[methyl(2-phenylethyl)amino]-4-oxa-12-azadispiro[2.1.5.3]tridecan-13-one]	< 100 nM
CCN1C[C@]2(CC[C@H](N(C)Cc3ccccc3)CC2)OC2(CC2)C1=O [Example 5, (5s,8s)-8-[benzyl(methyl)amino]-12-ethyl-4-oxa-12-azadispiro[2.1.5.3]tridecan-13-one]	< 100 nM
CCN1C[C@]2(CC[C@H](NCCc3ccccc3)CC2)OC2(CC2)C1=O [Example 6, (5s,8s)-12-ethyl-8-[(2-phenylethyl)amino]-4-oxa-12-azadispiro[2.1.5.3]tridecan-13-one]	< 500 nM
CCN1C[C@]2(CC[C@@H](NCCc3ccccc3)CC2)OC2(CC2)C1=O [Example 7, (5r,8r)-12-ethyl-8-[(2-phenylethyl)amino]-4-oxa-12-azadispiro[2.1.5.3]tridecan-13-one]	< 100 nM
CN(Cc1ccccc1)[C@H]1CC[C@@]2(CC1)CN(c1ccccc1)C(=O)C1(CC1)O2 [Example 8, (5s,8s)-8-[benzyl(methyl)amino]-12-phenyl-4-oxa-12-azadispiro[2.1.5.3]tridecan-13-one]	< 100 nM
CN(CCc1ccccc1)[C@H]1CC[C@@]2(CC1)CN(c1ccccc1)C(=O)C1(CC1)O2 [Example 9, (5s,8s)-8-(methyl(2-phenylethyl)amino]-12-phenyl-4-oxa-12-azadispiro[2.1.5.3]tridecan-13-one]	< 500 nM
O=C1N(c2ccccc2)C[C@]2(CC[C@H](NCc3ccccc3)CC2)OC12CC2 [Example 10, (5s,8s)-8-(benzylamino)-12-phenyl-4-oxa-12-azadispiro[2.1.5.3]tridecan-13-one]	≥ 500 nM
O=C1N(c2ccccc2)C[C@]2(CC[C@H](NCCc3ccccc3)CC2)OC12CC2 [Example 11, (5s,8s)-12-phenyl-8-[(2-phenylethyl)amino]-4-oxa-12-azadispiro[2.1.5.3]tridecan-13-one]	< 500 nM
O=C1N(c2ccccc2)C[C@]2(CC[C@@H](NCc3ccccc3)CC2)OC12CC2 [Example 12, (5r,8r)-8-(benzylamino)-12-phenyl-4-oxa-12-azadispiro[2.1.5.3]tridecan-13-one]	≥ 500 nM
O=C1N(c2ccccc2)C[C@]2(CC[C@@H](NCCc3ccccc3)CC2)OC12CC2 [Example 13]	≥ 500 nM
CN(Cc1ccccc1)[C@H]1CC[C@]2(CC1)CN(c1ccccc1)C(=O)C1(CC1)O2 [Example 14, (5r,8r)-8-[benzyl(methyl)amino]-12-phenyl-4-oxa-12-azadispiro[2.1.5.3]tridecan-13-one]	< 500 nM
CN(CCc1ccccc1)[C@H]1CC[C@]2(CC1)CN(c1ccccc1)C(=O)C1(CC1)O2 [Example 15, (5r,8r)-8-[methyl(2-phenylethyl)amino]-12-phenyl-4-oxa-12-azadispiro[2.1.5.3]tridecan-13-one]	< 500 nM
CCN1C[C@]2(CC[C@@H](N(C)Cc3ccccc3)CC2)OC2(CC2)C1=O [Example 16, (5r,8r)-8-[benzyl(methyl)amino]-12-ethyl-4-oxa-12-azadispiro[2.1.5.3]tridecan-13-one]	< 100 nM
CCN1CC2(CC2)O[C@]2(CC[C@@H](N(C)Cc3ccccc3)CC2)C1 [Example 17, (5s,8s)-N-benzyl-12-ethyl-N-methyl-4-oxa-12-azadispiro[2.1.5.3]tridecan-8-amine]	< 500 nM
CCN1CC2(CC2)O[C@]2(CC[C@H](N(C)Cc3ccccc3)CC2)C1 [Example 18, (5r,8r)-N-benzyl-12-ethyl-N-methyl-4-oxa-12-azadispiro[2.1.5.3]tridecan-8-amine]	< 500 nM
CN(Cc1ccccc1)[C@H]1CC[C@@]2(CC1)CN(c1ccccc1)CC1(CC1)O2 [Example 19, (5s,8s)-N-benzyl-N-methyl-12-phenyl-4-oxa-12-azadispiro[2.1.5.3]tridecan-8-amine]	< 100 nM
CN(Cc1ccccc1)[C@H]1CC[C@]2(CC1)CN(c1ccccc1)CC1(CC1)O2 [Example 20, (5r,8r)-N-benzyl-N-methyl-12-phenyl-4-oxa-12-azadispiro[2.1.53]tridecan-8-amine]	< 100 nM

SMILES	Ki
CCN1C[C@]2(CC[C@@H](NC)CC2)OC2(CC2)C1=O [Example 21, (5r,8r)-12-ethyl-8-(methylamino)-4-oxa-12-azadispiro[2.1.5.3]tridecan-13-one acetate]	≥ 500 nM
CCN1C[C@]2(CC[C@H](NC)CC2)OC2(CC2)C1=O [Example 22, (5s,8s)-12-ethyl-8-(methylamino)-4-oxa-12-azadispiro[2.1.5.3]tridecan-13-one acetate]	≥ 500 nM
CN[C@H]1CC[C@@]2(CC1)CN(c1ccccc1)C(=O)C1(CC1)O2 [Example 23, (5s,8s)-8-(methylamino)-12-phenyl-4-oxa-12-azadispiro[2.1.5.3]tridecan-13-one acetate]	≥ 500 nM
CN[C@H]1CC[C@]2(CC1)CN(c1ccccc1)C(=O)C1(CC1)O2 [Example 24, (5r,8r)-8-(methylamino)-12-phenyl-4-oxa-12-azadispiro[2.1.5.3]tridecan-13-one acetate]	≥ 500 nM
CN[C@H]1CC[C@@]2(CC1)CN(c1ccccc1)CC1(CC1)O2 [Example 25, (5s,8s)-N-methyl-12-phenyl-4-oxa-12-azadispiro[2.1.5.3]tridecan-8-amine acetate]	≥ 500 nM
CN[C@H]1CC[C@]2(CC1)CN(c1ccccc1)CC1(CC1)O2 [Example 26, (5r,8r)-N-rnethyl-12-phenyl-4-oxa-12-azadispiro[2.1.5.3]tridecan-8-amine acetate]	≥ 500 nM
CCN1C[C@]2(CC[C@@H](N(C)CCC(C)C)CC2)OC2(CC2)C1=O [Example 27, (5r,8r)-12-ethyl-8-[methyl(3-methylbutyl)amino]-4-oxa-12-azadispiro[2.1.5.3]tridecan-13-one]	< 500 nM
CCN1C[C@]2(CC[C@H](N(C)CCC(C)C)CC2)OC2(CC2)C1=O [Example 28, (5s,8s)-12-ethyl-8-[rnethyl(3-methylbutyl)amino]-4-oxa-12-azadispiro[2.1.5.3]tridecan-13-one]	< 500 nM
CC(C)CCN(C)[C@H]1CC[C@@]2(CC1)CN(c1ccccc1)C(=O)C1(CC1)O2 [Example 29, (5s,8s)-8-[methyl(3-methylbutyl)amino]-12-phenyl-4-oxa-12-azadispiro[2.1.5.3]tridecan-13-one]	< 500 nM
CC(C)CCN(C)[C@H]1CC[C@]2(CC1)CN(c1ccccc1)C(=O)C1(CC1)O2 [Example 30, (5r,8r)-8-[methyl(3-methylbutyl)amino]-12-phenyl-4-oxa-12-azadispiro[2.1.5.3]tridecan-13-one]	< 100 nM
CC(C)CCN(C)[C@H]1CC[C@@]2(CC1)CN(c1ccccc1)CC1(CC1)O2 [Example 31, (5s,8s)-N-methyl-N-(3-methylbutyl)-12-phenyl-4-oxa-12-azadispiro[2.1.5.3]tridecan-8-amine]	< 100 nM
CC(C)CCN(C)[C@H]1CC[C@]2(CC1)CN(c1ccccc1)CC1(CC1)O2 [Example 32, (5r,8r)-N-rnethyl-N-(3-methylbutyl)-12-phenyl-4-oxa-12-azadispiro[2.1.5.3]tridecan-8-amine]	< 100 nM
CCN1C[C@]2(CC[C@H](N(C)CC(C)C)CC2)OC2(CC2)C1=O [Example 33, (5s,8s)-12-ethyl-8-[methyl(2-methylpropyl)amino]-4-oxa-12-azadispiro[2.1.5.3]tridecan-13-one]	< 500 nM
CN(CCc1ccccc1)[C@H]1CC[C@]2(CC1)CN(c1ccccc1)CC1(CC1)O2 [Example 34, (5r,8r)-N-methyl-12-phenyl-N-(2-phenylethyl)-4-oxa-12-azadispiro[2.1.5.3]tridecan-8-amine]	< 100 nM
CCN1CC2(CC2)O[C@]2(CC[C@H](N(C)CCC(C)C)CC2)C1 [Example 35, (5r,8r)-12-ethyl-N-methyl-N-(3-methylbutyl)-4-oxa-12-azadispiro[2.1.5.3]tridecan-8-amine]	< 500 nM
CCN1C[C@]2(CC[C@H](NCc3ccccc3)CC2)OCC1=O [Example 36, (6s,9s)-9-(benzylamino)-4-ethyl-1-oxa-4-azaspiro[5.5]undecan-3-one]	≥ 500 nM
CCN1C[C@]2(CC[C@@H](NCc3ccccc3)CC2)OCC1=O [Example 37, (6r,9r)-9-(benzylamino)-4-ethyl-1-oxa-4-azaspiro[5.5]undecan-3-one]	≥ 500 nM
CCN1C[C@]2(CC[C@H](N(C)CC(C)C)CC2)OCC1=O [Example 38, (6s,9s)-4-ethyl-9-(isobutyl(methyl)amino)-1-oxa-4-azaspiro[5.5]undecan-3-one]	< 500 nM
CCN1C[C@]2(CC[C@H](NCc3ccccc3)CC2)OC(C)(C)C1=O [Example 39, (6s,9s)-9-(benzylamino)-4-ethyl-2,2-dimethyl-1-oxa-4-azaspiro[5.5]undecan-3-one]	≥ 500 nM
